System: AAV1/2-mediated over-expression of human A53T alpha-synuclein (hA53T-aSYN) in the striatonigral region of female Sprague Dawley (SD) rats
Test: AAV1/2 alpha synuclein rat model of synucleinopathy (neuroprotective potential)
Assay type: in vivo
Conditions: Day 2 to Day 42; for Striatal dopamine levels, operated vs non-operated sides: FIG. 3; for Nigral TH+ve cell counts (operated side): TH+ve neurons in the striatonigral region compared to empty AAV1/2 control animals: immunohistochemistry and stereological cell counting, FIG. 1; for Striatal TH OD (operated vs non-operated sides): FIG. 2
Experimental: Compound I was evaluated in a adeno-associated virus (AAV) AAV1/2 alpha synuclein rat model based upon AAV1/2-mediated delivery and over-expression of human A53T alpha-synuclein (hA53T-aSYN) in the striatonigral region of the midbrain of female Sprague Dawley (SD) rats (Koprich et al, PLoS One. 7; 6(3):e17698, 2011). The study was designed to assess the ability of Compound I to protect dopaminergic neurons from viral vector mediated over-expression of aSYN leading to neurodegeneration in rat model. This model is typically used as a model for aSYN-induced Parkinsonism, but may serve as a model for aSYN-induced neuronal loss in general. AAV1/2 hA53T-aSYN (a viral vector delivering the capability to express human A53T mutant aSYN), or the control AAV1/2 empty vector, was injected stereotactically and unilaterally, into the striatal region of the midbrain. Rats were treated orally with Compound I (melt extrusion suspension), once daily, to provide equivalent doses of Compound I at 15, 30 and 45 mg/kg.
AAV1/2 hA53T-aSYN or empty AAV1/2 vector was administered sterotactically and unilaterally into the right striatal region on Day 1. Starting on Day 2 and continuing daily until Day 42, animals were fasted for 6 hr prior to oral administration of Compound I or vehicle (placebo). Food was reintroduced 60 minutes later. A total of 5 groups of animals, each group N=12, were employed.
Animals were killed for post-mortem assessments on Day 43, at least 18 h after last administration of Compound I or vehicle. Brains were removed along with the terminal blood collection.
As a consequence of localized synucleinopathy caused by the AAV1/2-encoded hA53T aSYN at or near the site of injection, tyrosine hydroxylase (TH)-expressing dopaminergic neurons in the affected striatonigral area degenerate (Koprich et al., PLoS One, 7; 6(3):e17698, 2011). Number of tyrosine hydroxylase positive (TH^+ve) cells within the striatonigral region of the right side of the brain (injected side), were assessed using immunohistochemistry and stereological cell counting. Tyrosine hydroxylase is a critical enzyme involved in dopamine biosynthesis and thus, its presence can be used as a marker of live neurons capable of producing dopamine.

Cc1ccc(C(=O)NNC(=O)c2c(C)cccc2Cl)cc1C#Cc1cnc2ccccc2c1 [Compound I]
Striatal dopamine levels, operated vs non-operated sides (15 mg/kg oral once daily): failed to restore the dopamine biosynthetic capability | Nigral TH+ve cell counts (operated side): TH+ve neurons in the striatonigral region compared to empty AAV1/2 control animals (15 mg/kg oral once daily): significant reduction (p<0.05) | Striatal TH OD (operated vs non-operated sides) (30 mg/kg oral once daily): significant neuroprotective effect | Striatal dopamine levels, operated vs non-operated sides (30 mg/kg oral once daily): failed to restore the dopamine biosynthetic capability | Nigral TH+ve cell counts (operated side): TH+ve neurons in the striatonigral region compared to empty AAV1/2 control animals (30 mg/kg oral once daily): significant reduction (p<0.05) | Striatal TH OD (operated vs non-operated sides) (45 mg/kg oral once daily): significant neuroprotective effect | Striatal dopamine levels, operated vs non-operated sides (45 mg/kg oral once daily): still lower than that from its left counterpart | Nigral TH+ve cell counts (operated side): TH+ve neurons in the striatonigral region compared to empty AAV1/2 control animals (45 mg/kg oral once daily): did not show significant reduction (p>0.05)
